According to patent publication US10286084B2, “Compositions for the inactivation of virus replication and methods of making and using the same” (priority 2014, dated 2019):
Structures can show the parent of a compound that is named as a salt. Where two headings read alike, the source gives them in different places.

Key:
Assay type in all cases: cell-based
HBV = HBV DNA release into supernatant of transduced HBV2.2.15 cells, with or without antivirals; details: compound 1 μM, relative to untreated N.S. sgRNA cells, average ± SD; for inhibition at 1 µM: Hepatitis B virus
Method: HepAD38 or HBV2.2.15 cells were transduced with lentiviral vectors expressing a puromycin resistance gene as well as Spy Cas9 and an sgRNA, as described above, at 85-90% confluency after growth in medium lacking Tet for 48 h, to ensure expression of HBV mRNAs and DNA. Beginning at 48 h post-transduction, cells were selected in 4 μg/ml puromycin (Life Technologies) for 10 days to eliminate any non-transduced cells. Supernatant media and cells were then harvested for ELISA and real-time PCR assays. Control cells including non-transduced HepAD38 cells were included as positive controls for HBV replication (in medium lacking Tet) or virtual absence of HBV replication (in medium containing Tet). Non-transduced HBV 2.2.15 cells were included as a control in experiments where relevant.
On day 7, total DNA was purified from supernatant using a commercially available kit (DNeasy Blood & Tissue kit, Qiagen). The HBV DNA was amplified in a real-time PCR assay using the AB 7900HT sequence detection system (Applied Biosystems) or the LightCycler 480 (Roche) as described by Stuyver et al. (2002). All samples were tested in duplicate. The concentration of compound that inhibited HBV DNA replication by 50% (EC50) or 90% (EC90) was determined by linear regression. HBV log viral reduction was also determined.
After transduction with Cas9/sgRNA expressing lentiviral constructs and selection, we observed that extracellular levels of HBV DNA were suppressed by ˜98%, ˜80%, and ˜90%, respectively, by the RT, surface Ag, and core specific Cas9/sgRNA combinations (Table 1).

[1] = system: HPV-18 E6 or E7 gene target; test: FLuc indicator assay in 293T cells, Spy Cas9 sgRNAs expressed from U6 or tRNA promoters; details: Spy Cas9, 72 h, promoter driving the sgRNA varied
From the text: (§1) Human tRNA sequences were obtained from the Genomic tRNA database and the MHV tRNA-7 sequence was obtained from Bogerd et al. 2010. (Mol. Cell 37, p135-142, 2010). To generate a tRNA-sgRNA expression construct, overlapping oligonucleotides were assembled to create a tRNA fused to an sgRNA scaffold and a pol III termination signal. Between the tRNA and the sgRNA scaffold, two BsmBI or BbsI sites were incorporated to allow for the insertion of variable targeting sequences. tRNA-sgRNA cassettes were then cloned into Cas9 expression vectors pCMVSau (discussed more fully below), pCMVNme, or pX330 (Addgene, plasmid #42230) expressing S. aureus, N. meningitidis, or S. pyogenes Cas9, respectively. In the case of pX330 the U6 promoter was exchanged for the tRNA-sgRNA cassette.
(§2) Reporter assays with 293T cells were performed by using the calcium phosphate transfection method. Briefly, 293T cells were plated at ˜1.25×10^5 cells per well in 12-well plates and transfected with a 4:1 ratio of the RGN expression plasmid to the FLuc-based indicator plasmid as well as 10 ng of a RLuc plasmid. Transfected 293T cells were then harvested 72 hours post transfection in Passive Lysis Buffer (Promega) and assayed for both FLuc and RLuc activity (Promega Dual-Luciferase Reporter Assay System) with RLuc serving as an internal control and normalization factor.
Initially we generated predicted fusion transcripts consisting of a human glutamine tRNA (SEQ ID NO: 41), a human histidine tRNA (SEQ ID NO: 44) or an MHV68 tRNA (M1-7; SEQ ID NO: 50)) linked to Spy Cas9 sgRNAs specific for a target DNA sequence derived either from the human papillomavirus serotype 18 (HPV-18) E6 or E7 gene (SEQ ID NO: 8 and 10, respectively), as described above. Indicator plasmids consisting of these viral target sequences linked to the FLuc gene, constructed as described above, were then co-transfected into 293T cells along with a plasmid encoding Spy Cas9, plasmids encoding each of the tRNA promoters, or the U6 promoter, linked to the same sgRNA and finally a RLuc-based internal control plasmid. Cells were harvested at 72 h post-transfection and FLuc and RLuc levels determined.

HSV-1 ICP0 gene = test: FLuc indicator assay in 293T cells, Sau Cas9 sgRNA expressed from various tRNAs; details: Sau Cas9, identical HSV-1 ICP0 sgRNA (SEQ ID NO: 16), tRNA promoter varied
From the text: as §1, §2
As such Sau encodes a promising Cas9 gene for potential use in AAV vectors. To analyze whether we could also produce active Sau sgRNAs using tRNA promoters, we expressed the identical Sau sgRNA, specific for a target within the HSV-1 ICP0 gene (SEQ ID NO: 16), using a wide range of human tRNAs. […] The reason for the lower efficiency of processing seen with all of these tRNA:sgRNA fusions is currently unclear, but could relate to the single invariant sgRNA sequence used in this experiment.

[2] = HBV2.2.15 cells expressing Cas9 and HBV RT sgRNA, read-out: Percent inhibition of HBV DNA release into the supernatant medium, HBV RT sgRNA
[3] = HBV2.2.15 cells expressing Cas9 and HBV core sgRNA, read-out: Percent inhibition of HBV DNA release into the supernatant medium, HBV core sgRNA
[4] = HBV2.2.15 cells expressing Cas9 and HBV surface sgRNA, read-out: Percent inhibition of HBV DNA release into the supernatant medium, HBV surface sgRNA
[5] = HBV2.2.15 cells expressing Cas9 and N.S. sgRNA, triplicate, read-out: Percent inhibition of HBV DNA release into the supernatant medium, N.S. sgRNA

Nc1ccn([C@@H]2CS[C@H](CO)O2)c(=O)n1 [3TC, lamivudine]
inhibition at 1 µM (HBV; [2]): 99.1 ± 0.03%
inhibition at 1 µM (HBV; [3]): 97.1 ± 0.5%
inhibition at 1 µM (HBV; [4]): 96.3 ± 0.1%
inhibition at 1 µM (HBV; [5]): 61.4 ± 6.2%

C=C1[C@H](CO)[C@@H](O)C[C@@H]1n1cnc2c(=O)[nH]c(N)nc21 [ETV, entecavir]
inhibition at 1 µM (HBV; [2]): 98.5 ± 1%
inhibition at 1 µM (HBV; [3]): 97.9 ± 0.6%
inhibition at 1 µM (HBV; [4]): 97.6 ± 1.1%
inhibition at 1 µM (HBV; [5]): 78.3 ± 7.9%

COC(=O)C1=C(CN2CCOCC2)NC(c2ccccn2)=NC1c1ccc(F)cc1Cl (stereo not shown) [HAP12, heteroaryldihydropyrimidine]
Percent inhibition of HBV DNA release into the supernatant medium, HBV RT sgRNA (HBV; HBV2.2.15 cells expressing Cas9 and HBV RT sgRNA): 97.5 ± 0.7%
Percent inhibition of HBV DNA release into the supernatant medium, HBV core sgRNA (HBV; HBV2.2.15 cells expressing Cas9 and HBV core sgRNA): 97.6 ± 0.1%
Percent inhibition of HBV DNA release into the supernatant medium, HBV surface sgRNA (HBV; HBV2.2.15 cells expressing Cas9 and HBV surface sgRNA): 98.0 ± 0.3%
Percent inhibition of HBV DNA release into the supernatant medium, N.S. sgRNA (HBV; HBV2.2.15 cells expressing Cas9 and N.S. sgRNA, triplicate): 77.5 ± 5.2%

CC(C)OC(=O)OCOP(=O)(CO[C@H](C)Cn1cnc2c(N)ncnc21)OCOC(=O)OC(C)C [TDF, tenofovir disoproxil fumarate]
inhibition at 1 µM (HBV; [2]): 98.9 ± 0.2%
inhibition at 1 µM (HBV; [3]): 97 ± 0.3%
inhibition at 1 µM (HBV; [4]): 95.9 ± 0.7%
inhibition at 1 µM (HBV; [5]): 68.1 ± 1.5%

B1: U6 promoter: U6 pol III promoter, ~254 bp, SEQ ID NO: 51, driving sgRNA transcription (nucleic acid)
DNA: TCTAGAGAGGGCCTATTTCCCATGATTCCTTCATATTTGCATATACGATACAAGGCTGTTAGAGAGATAATTGGAATTAATTTGACTGTAAACACAAAGATATTAGTACAAAATACGTGACGTAGAAAGTAATAATTTCTTGGGTAGTTTGCAGTTTTAAAATTATGTTTTAAAATGGACTATCATATGCTTACCGTAACTTGAAAGTATTTCGATTTCTTGGCTTTATATATCTTGTGGAAAGGACGAAACACC
modifications: Synthetic U6 Promoter
knockdown of E6- and E7-based FLuc indicator constructs [1]: effective and comparable knockdown

B2: tRNAHIS: human histidine tRNA promoter (SEQ ID NO: 44) fused to sgRNA (nucleic acid)
DNA: GCCGTGATCGTATAGTGGTTAGTACTCTGCGTTGTGGCCGCAGCAACCTCGGTTCGAATCCGAGTCACGGCA
modifications: expressed or natural sequence
knockdown of E6- and E7-based FLuc indicator constructs [1]: slightly less effective

B3: tRNATYR: human tRNA promoter, SEQ ID NO: 49, fused to sgRNA (nucleic acid)
DNA: GTCAGTGTTGCACAACGGTTAAGTGAAGAGGCTGTAAACCCAGACTGGATGGGTTCAATTCCCATCTCTGCCG
modifications: expressed or natural sequence
knockdown of FLuc indicator (HSV-1 ICP0 gene): little or no detectable knockdown

B4: tRNAGLU: human tRNA promoter, SEQ ID NO: 46, fused to sgRNA (nucleic acid)
DNA: TCCCTGGTGGTCTAGTGGTTAGGATTCGGCGCTCTCACCGCCGCGGCCCGGGTTCGATTCCCGGTCAGGGAA
modifications: expressed or natural sequence
knockdown of FLuc indicator (HSV-1 ICP0 gene): strong knockdown

B5: tRNAMHV-7: MHV68 tRNA promoter (SEQ ID NO: 50) fused to sgRNA (nucleic acid)
DNA: GCCAGGGTAGCTCAATTGGTAGAGCATCAGGCTAGTATCCTGTCGGTTCCGGTTCAAGTCCGGGCCCTGGTT
modifications: expressed or natural sequence
knockdown of E6- and E7-based FLuc indicator constructs [1]: effective and comparable knockdown

B6: tRNAGLN: human glutamine tRNA promoter (SEQ ID NO: 41) fused to sgRNA (nucleic acid)
DNA: GGTTCCATGGTGTAATGGTTAGCACTCTGGACTCTGAATCCAGCGATCCGAGTTCAAATCTCGGTGGAACCT
modifications: expressed or natural sequence
knockdown of FLuc indicator (HSV-1 ICP0 gene): strong knockdown
knockdown of E6- and E7-based FLuc indicator constructs [1]: effective and comparable knockdown

B7: tRNAGLN2: human tRNA promoter, SEQ ID NO: 45, fused to sgRNA (nucleic acid)
DNA: B6 DNA
modifications: expressed or natural sequence
knockdown of FLuc indicator (HSV-1 ICP0 gene): strong knockdown

B8: tRNACYS: human tRNA promoter, SEQ ID NO: 48, fused to sgRNA (nucleic acid)
DNA: GGGGGTATAGCTCAGGGGTAGAGCATTTGACTGCAGATCAAGAGGTCCCCAGTTCAAATCTGGGTGCCCCCT
modifications: expressed or natural sequence
knockdown of FLuc indicator (HSV-1 ICP0 gene): readily detectable knockdown
